Source: ChEMBL document CHEMBL1143085, “Synthesis and in vitro antimycobacterial activity of B-ring modified diaryl ether InhA inhibitors” (Bioorg Med Chem Lett, 2008)
In brackets after ≈: the same amount, converted by molar mass.

Assays:
[1] = tested on: Mycobacterium tuberculosis; experiment: Antimicrobial activity against Mycobacterium tuberculosis H37RV; type: functional
[2] = molecular target: T1, Enoyl-[acyl-carrier-protein] reductase [NADH] (Mycobacterium tuberculosis, UniProt P9WGR1)
T1 sequence (P9WGR1 whole entry): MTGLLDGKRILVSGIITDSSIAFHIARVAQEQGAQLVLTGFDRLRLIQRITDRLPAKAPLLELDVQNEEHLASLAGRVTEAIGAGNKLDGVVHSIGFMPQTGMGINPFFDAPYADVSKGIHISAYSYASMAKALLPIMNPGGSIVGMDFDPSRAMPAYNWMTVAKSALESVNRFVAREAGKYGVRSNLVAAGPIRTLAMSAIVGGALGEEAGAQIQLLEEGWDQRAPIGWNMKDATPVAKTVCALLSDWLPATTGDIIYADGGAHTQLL
Description: Inhibition of Mycobacterium tuberculosis H37RV InhA

[3] = molecular target: T1, Enoyl-[acyl-carrier-protein] reductase [NADH]; experiment: Inhibition of 100 nM Mycobacterium tuberculosis H37RV InhA
[4] = Partition coefficient, log P of the compound; type: physicochemical; conditions: octanol/water

CCCCCCc1ccc(Oc2ccc(NC(=O)C(=O)O)cc2)c(O)c1
MIC90 [1]: > 200 µg/mL | Ki [2]: 1 nM

CCCCCCc1ccc(Oc2ccccc2CN2CCN(C)CC2)c(O)c1
Ki [2]: 1 nM

CCCCCCc1ccc(Oc2cccc(N)c2)c(O)c1
MIC90 [1]: 100 µg/mL (≈ 350 µM) | Ki [2]: 1 nM

CCCCCCc1ccc(Oc2ccccn2)c(O)c1
IC50 [3]: 11500 nM | logP ([4]; read-out: LogP): 5.06 | Ki [2]: 1 nM

CCCCCCc1ccc(Oc2ncccn2)c(OC)c1
MIC90 [1]: 75 µg/mL (≈ 262 µM) | Ki [2]: 1 nM

CCCCCCc1ccc(Oc2ccc(NC(C)=O)cc2)c(O)c1
MIC90 [1]: 50 µg/mL (≈ 153 µM) | Ki [2]: 1 nM

CCCCCCc1ccc(Oc2ccccc2)c(O)c1
MIC90 [1]: 2.1 µg/mL (≈ 7.77 µM) | logP ([4]; read-out: LogP): 5.76 | Ki [2]: 1 nM

CCCCCCc1ccc(Oc2nc(OC)cc(OC)n2)c(O)c1
MIC90 [1]: 100 µg/mL (≈ 301 µM) | Ki [2]: 1 nM

CCCCCCc1ccc(Oc2cccc(NC(=O)C(=O)O)c2)c(O)c1
IC50 [3]: 580 nM | MIC90 [1]: 130 µg/mL (≈ 364 µM) | Ki [2]: 1 nM

CCCCCCc1ccc(Oc2ccccc2N)c(O)c1
MIC90 [1]: 3.13 µg/mL (≈ 11 µM) | logP ([4]; read-out: LogP): 5.27

CCCCCCc1ccc(Oc2ccncc2)c(O)c1
MIC90 [1]: 3.13 µg/mL (≈ 11.5 µM) | logP ([4]; read-out: LogP): 4.93 | Ki [2]: 1 nM

CCCCCCc1ccc(Oc2ccc(CN3CCN(C)CC3)cc2)c(O)c1
MIC90 [1]: > 100 µg/mL | Ki [2]: 1 nM

CCCCCCc1ccc(Oc2ncccn2)c(O)c1
MIC90 [1]: 100 µg/mL (≈ 367 µM) | logP ([4]; read-out: LogP): 4.46 | Ki [2]: 1 nM

CCCCCCc1ccc(Oc2ccccc2NC(C)=O)c(O)c1
IC50 [3]: 1550 nM | MIC90 [1]: > 200 µg/mL | logP ([4]; read-out: LogP): 5.28 | Ki [2]: 1 nM

CCCCCCc1ccc(Oc2cnccn2)c(O)c1
MIC90 [1]: 6.25 µg/mL (≈ 22.9 µM) | logP ([4]; read-out: LogP): 4.76 | Ki [2]: 1 nM

CCCCCCc1ccc(Oc2ccc([N+](=O)[O-])cc2)c(O)c1
IC50 [3]: 90 nM | MIC90 [1]: 25 µg/mL (≈ 79.3 µM) | logP [4]: 5.64 | Ki [2]: 1 nM

CCCCCCc1ccc(Oc2ccccc2NC(=O)C(=O)O)c(O)c1
IC50 [3]: 2360 nM | MIC90 [1]: 100 µg/mL (≈ 280 µM) | Ki [2]: 1 nM

CCCCCCc1ccc(Oc2cccc(NC(C)=O)c2)c(O)c1
IC50 [3]: 5600 nM | MIC90 [1]: 100 µg/mL (≈ 305 µM) | Ki [2]: 1 nM

CCCCCCc1ccc(Oc2ccc(NC(=O)c3ccno3)cc2)c(O)c1
MIC90 [1]: > 200 µg/mL | logP ([4]; read-out: LogP): 5.15 | Ki [2]: 1 nM

CCCCCCc1ccc(Oc2cccc(NC(=O)c3ccno3)c2)c(O)c1
IC50 [3]: 1200 nM | MIC90 [1]: > 200 µg/mL | logP ([4]; read-out: LogP): 5.22 | Ki [2]: 1 nM

CCCCCCc1ccc(Oc2ccc(N)cc2)c(O)c1
MIC90 [1]: 12.5 µg/mL (≈ 43.8 µM) | logP ([4]; read-out: LogP): 4.93

CCCCCCc1ccc(Oc2cccc([N+](=O)[O-])c2)c(O)c1
MIC90 [1]: 12.5 µg/mL (≈ 39.6 µM)

CCCCCCc1ccc(Oc2ccccc2NC(=O)c2ccno2)c(O)c1
MIC90 [1]: > 200 µg/mL | logP ([4]; read-out: LogP): 5.76 | Ki [2]: 1 nM

CCCCCCc1ccc(Oc2ccccc2[N+](=O)[O-])c(O)c1
MIC90 [1]: 12.5 µg/mL (≈ 39.6 µM) | logP [4]: 5.5 | Ki [2]: 1 nM

CCCCCCc1ccc(Oc2cccnc2)c(O)c1
MIC90 [1]: 3.13 µg/mL (≈ 11.5 µM) | Ki [2]: 1 nM
